Broadly, the IC50 is the concentration that inhibits the measured activity by half.

Each structure is given as a SMILES string.

In this assay the test system is IL-1β release upon NLRP3 activation in peripheral blood mononuclear cells (PBMC). The experiment in a line: PBMC IC50 Determination Assay. In kind it is cell-based. Particulars: Homo sapiens; LPS-primed PBMC, 30 min compound, stimulated with ATP (5 mM) or nigericin (10 μM) for 1 h; IL-1β ELISA; read-out: PBMC IC50. The procedure:
PBMC IC50 Determination Assay
The compounds of the present disclosure were tested for their inhibitory activity against IL-1β release upon NLRP3 activation in peripheral blood mononuclear cells (PBMC).
Isolated cells were seeded into the wells of a 96-well plate and incubated for 3 h with lipopolysaccharide (LPS). Following medium exchange, the compounds of the present disclosure were added (a single compound per well) and the cells were incubated for 30 min. Next, the cells were stimulated either with ATP (5 mM) or nigericin (10 μM) for 1 h and the cell culture media from the wells were collected for further analysis.
The release of IL-1β into the media was determined by a quantitative detection of IL-1β in the media using an IL-1β enzyme-linked immunosorbent assay (ELISA) Ready-SET-Go!, eBioscience cat. […] Subsequently, plates were blocked with blocking buffer for 1 h at room temperature (rt) and after washing with a buffer (PBS with 0.05% Tween-20) incubated with protein standard and culture media. […] Plates were washed and incubated with HRP-streptavidin for 30 min at rt and washed again. The signal was developed after addition of 3,3,5,5-tetramethylbenzidine-peroxidase (TMB) until colour appeared and the reaction was stopped by 2 M H2SO4. A microplate spectrophotometer (BioTek) was used to detect signals with 450 nm. The detection range of IL-1β ELISA was 2-150 ng/ml.
(In general: In an ELISA, binding on a coated surface is turned into a signal by an enzyme label.)
As to `CC(C)COC(=O)COC(=O)Nc1c2c(cc3c1CCC3)CCC2` [Compound 24, 2-methylpropyl 2-{[(1,2,3,5,6,7-hexahydro-s-indacen-4-yl)carbamoyl]oxy}acetate], the 50% inhibitory concentration (IC50) fell in the range of 100 to 1000 nM.

As to `CCOC(=O)C(Cn1cccn1)OC(=O)Nc1ccccc1` (stereo not shown) [Compound 45, Ethyl 2-[(phenylcarbamoyl)oxy]-3-(1H-pyrazol-1-yl)propanoate], the IC50 was above 10000 nM.

As for `Cc1nccc(CC(OC(=O)Nc2c3c(cc4c2CCC4)CCC3)C(=O)OC(C)C)n1` (stereo not shown) [Compound 120, Propan-2-yl 2-{[(1,2,3,5,6,7-hexahydro-s-indacen-4-yl)carbamoyl]oxy}-3-(2-methylpyrimidin-4-yl)propanoate], the IC50 fell in the range of 10 to 100 nM.

For the compound `CCOC(=O)C(Cn1cccn1)OC(=O)Nc1c(C)cccc1F` (stereo not shown) [Compound 49, Ethyl 2-{[(2-fluoro-6-methylphenyl)carbamoyl]oxy}-3-(1H-pyrazol-1-yl)propanoate], the 50% inhibitory concentration (IC50) lay within 100 to 1000 nM.

Take `COC[C@@H](OC(=O)Nc1c2c(cc3c1CCC3)CCC2)C(=O)O` [Compound 69, (2R)-2-{[(1,2,3,5,6,7-hexahydro-s-indacen-4-yl)carbamoyl]oxy}-3-methoxypropanoic acid]: the IC50 fell in the range of 100 to 1000 nM.

Consider `CCOC(=O)[C@@H](Cn1ccc(C#N)n1)OC(=O)Nc1c2c(cc3c1CCC3)CCC2` [Compound 96, Ethyl (2R)-3-(3-cyano-1H-pyrazol-1-yl)-2-{[(1,2,3,5,6,7-hexahydro-s-indacen-4-yl)carbamoyl]oxy}propanoate], for which the half-maximal inhibitory concentration (IC50) was in the range of 100 to 1000 nM.

Consider `Cc1cncc(CC(OC(=O)Nc2c3c(cc4c2CCC4)CCC3)C(=O)OC(C)C)n1` (stereo not shown) [Compound 117, Propan-2-yl 2-{[(1,2,3,5,6,7-hexahydro-s-indacen-4-yl)carbamoyl]oxy}-3-(6-methylpyrazin-2-yl)propanoate], for which the IC50 was below 10 nM.

As for `CCOC(=O)C(Cc1cccnc1)OC(=O)Nc1c2c(cc3c1CCC3)CCC2` (stereo not shown) [Compound 12, Ethyl 2-{[(1,2,3,5,6,7-hexahydro-s-indacen-4-yl)carbamoyl]oxy}-3-(pyridin-3-yl)propanoate], the IC50 lay in the range of 10 to 100 nM.

As for `CCOC(=O)COC(=O)Nc1cccc2ccccc12` [Compound 4, Ethyl 2-{[(naphthalen-1-yl)carbamoyl]oxy}acetate], the IC50 was in the range of 1000 to 10000 nM.

For `CC(C)OC(=O)C(Cc1ncccn1)OC(=O)NC1(C)CCCCC1` (stereo not shown) [Compound 122, Propan-2-yl 2-{[(1-methylcyclohexyl)carbamoyl]oxy}-3-(pyrimidin-2-yl)propanoate], the 50% inhibitory concentration (IC50) is above 10000 nM.

Turning to `CC(C)OC(=O)[C@@H](Cn1cnc(C#N)n1)OC(=O)Nc1c2c(cc3c1CCC3)CCC2` [Compound 126, Propan-2-yl (2R)-3-(3-cyano-1H-1,2,4-triazol-1-yl)-2-{[(1,2,3,5,6,7-hexahydro-s-indacen-4-yl)carbamoyl]oxy}propanoate], the IC50 lay within 10 to 100 nM.

For the compound `O=C(Nc1c2c(cc3c1CCC3)CCC2)O[C@H](Cn1cccn1)C(=O)OCc1ccccc1` [Compound 64, Benzyl (2R)-2-{[(1,2,3,5,6,7-hexahydro-s-indacen-4-yl)carbamoyl]oxy}-3-(1H-pyrazol-1-yl)propanoate], the IC50 was in the range of 100 to 1000 nM.

On to `CC(C)OC(=O)C(Cc1ncc(C#N)cn1)OC(=O)Nc1c2c(cc3c1CCC3)CCC2` (stereo not shown) [Compound 130, Propan-2-yl 3-(5-cyanopyrimidin-2-yl)-2-{[(1,2,3,5,6,7-hexahydro-s-indacen-4-yl)carbamoyl]oxy}propanoate], for which the IC50 lay in the range of 10 to 100 nM.

On to `CCOC(=O)C(Cn1ccnc1C)OC(=O)Nc1c2c(cc3c1CCC3)CCC2` (stereo not shown) [Compound 84, Ethyl 2-{[(1,2,3,5,6,7-hexahydro-s-indacen-4-yl)carbamoyl]oxy}-3-(2-methyl-1H-imidazol-1-yl)propanoate], for which the IC50 was in the range of 1000 to 10000 nM.

Take `CCOC(=O)[C@@H](Cn1ncnc1C)OC(=O)Nc1c2c(cc3c1CCC3)CCC2` [Compound 103, Ethyl (2R)-2-{[(1,2,3,5,6,7-hexahydro-s-indacen-4-yl)carbamoyl]oxy}-3-(5-methyl-1H-1,2,4-triazol-1-yl)propanoate]: the IC50 is 10 to 100 nM.

Consider `O=C(COC(=O)Nc1c2c(cc3c1CCC3)CCC2)OC1CCCC1` [Compound 32, Cyclopentyl 2-{[(1,2,3,5,6,7-hexahydro-s-indacen-4-yl)carbamoyl]oxy}acetate], for which the concentration for half-maximal inhibition (IC50) was in the range of 100 to 1000 nM.

As for `CCOC(=O)C(Cn1cccn1)OC(=O)Nc1c(Cl)cccc1CC` (stereo not shown) [Compound 85, Ethyl 2-{[(2-chloro-6-ethylphenyl)carbamoyl]oxy}-3-(1H-pyrazol-1-yl)propanoate], the half-inhibitory concentration (IC50) lay in the range of 10 to 100 nM.

For `CCOC(=O)[C@@H](COC)OC(=O)Nc1c2c(cc3c1CCC3)CCC2` [Compound 68, Ethyl (2R)-2-{[(1,2,3,5,6,7-hexahydro-indacen-4-yl)carbamoyl]oxy}-3-methoxypropanoate], the 50% inhibitory concentration (IC50) was 1000 to 10000 nM.

Regarding `CCOC(=O)[C@@H](COC1CCOCC1)OC(=O)Nc1c2c(cc3c1CCC3)CCC2` [Compound 102, Ethyl (2R)-2-{[(1,2,3,5,6,7-hexahydro-s-indacen-4-yl)carbamoyl]oxy}-3-(oxan-4-yloxy)propanoate], the IC50 fell in the range of 100 to 1000 nM.

Take `CCOC(=O)[C@@H](CCc1ccccc1)OC(=O)Nc1c2c(cc3c1CCC3)CCC2` [Compound 30, Ethyl (2R)-2-{[(1,2,3,5,6,7-hexahydro-s-indacen-4-yl)carbamoyl]oxy}-4-phenylbutanoate]: the IC50 is 100 to 1000 nM.

As for `CCOC(=O)C(Cn1cccn1)OC(=O)Nc1c(F)cccc1F` (stereo not shown) [Compound 44], the half-maximal inhibitory concentration (IC50) was 100 to 1000 nM.

With `CCOC(=O)C(Cn1cccn1)OC(=O)NC1CCCCC1` (stereo not shown) [Compound 53, ethyl 2-[(cyclohexylcarbamoyl)oxy]-3-(1H-pyrazol-1-yl)-propanoate], the IC50 fell in the range of 1000 to 10000 nM.

With `CC(C)OC(=O)C(Cc1ncccn1)OC(=O)NC12CCC(CC1)CC2` (stereo not shown) [Compound 127, Propan-2-yl 2-[({bicyclo[2.2.2]octan-1-yl}carbamoyl)oxy]-3-(pyrimidin-2-yl)propanoate], the IC50 was 1000 to 10000 nM.

Turning to `CC(C)OC(=O)C(Cc1ncccn1)OC(=O)Nc1c(F)cccc1Cl` (stereo not shown) [Compound 123, Propan-2-yl 2-{[(2-chloro-6-fluorophenyl)carbamoyl]oxy}-3-(pyrimidin-2-yl)propanoate], the IC50 fell in the range of 100 to 1000 nM.

Turning to `O=C(Nc1c2c(cc3c1CCC3)CCC2)O[C@H](Cn1ccnc1)C(=O)O` [Compound 79, (2R)-2-{[(1,2,3,5,6,7-hexahydro-s-indacen-4-yl)carbamoyl]oxy}-3-(1H-imidazol-1-yl)propanoic acid], the IC50 was 1000 to 10000 nM.

Turning to `O=C(Nc1c2c(cc3c1CCC3)CCC2)O[C@H](Cn1cncn1)C(=O)O` [Compound 114, (2R)-2-{[(1,2,3,5,6,7-hexahydro-s-indacen-4-yl)carbamoyl]oxy}-3-(1H-1,2,4-triazol-1-yl)propanoic acid], the half-maximal inhibitory concentration (IC50) is 100 to 1000 nM.

Take `CCOC(=O)C(Cn1cccn1)OC(=O)Nc1c(C#N)cccc1CC` (stereo not shown) [Compound 58, Ethyl 2-{[(2-cyano-6-ethylphenyl)carbamoyl]oxy}-3-(1H-pyrazol-1-yl)propanoate]: the IC50 fell in the range of 1000 to 10000 nM.

`O=C(Nc1c2c(cc3c1CCC3)CCC2)O[C@H](Cn1cncn1)C(=O)OC1CCCC1` [Compound 116, Cyclopentyl (2R)-2-{[(1,2,3,5,6,7-hexahydro-s-indacen-4-yl)carbamoyl]oxy}-3-(1H-1,2,4-triazol-1-yl)propanoate]: the IC50 is below 10 nM.

These data come from patent US12247011B2, “Selective inhibitors of NLRP3 inflammasome” (NodThera Limited, priority 2017, dated 2025).
